Legend:
[1] = tested on: Tyrosine-protein kinase ABL1 (Homo sapiens), P00519 [T315I]; assay: Abl(T315I) (h) Upstate kinase activity assay; conditions: Compound concentration 10.0 uM
[2] = biological target: ALK tyrosine kinase receptor (Homo sapiens) (UniProt Q9UM73); assay: ALK (h) Upstate kinase activity assay; conditions: Compound concentration 10.0 uM
[3] = biological target: Cyclin-dependent kinase 2/cyclin E (Homo sapiens) (UniProt P24864+P24941+O96020); assay: CDK2/ cyclin E (h) Upstate kinase activity assay; type: protein-complex assay; conditions: Compound concentration 10.0 uM
[4] = biological target: CDK6/cyclin D3 (Homo sapiens) (UniProt P30281+Q00534); assay: CDK6/ cyclin D3 (h) Upstate kinase activity assay; type: protein-complex assay; conditions: Compound concentration 10.0 uM
[5] = biological target: Casein kinase II subunit alpha (Homo sapiens) (UniProt P68400); assay: CK2 (h) Upstate kinase activity assay; conditions: Compound concentration 10.0 uM
[6] = biological target: Ephrin type-A receptor 2 (Homo sapiens) (UniProt P29317); assay: EphA2 (h) Upstate kinase activity assay; conditions: Compound concentration 10.0 uM
[7] = biological target: Tyrosine-protein kinase Lyn (Homo sapiens) (UniProt P07948); assay: Lyn (h) Upstate kinase activity assay; conditions: Compound concentration 10.0 uM
[8] = biological target: Dual specificity mitogen-activated protein kinase kinase 1 (Homo sapiens) (UniProt Q02750); assay: MEKI (h) Upstate kinase activity assay; conditions: Compound concentration 10.0 uM
[9] = biological target: cAMP-dependent protein kinase catalytic subunit alpha (Homo sapiens) (UniProt P17612); assay: PKA (h) Upstate kinase activity assay; conditions: Compound concentration 10.0 uM
[10] = biological target: T1, Serine/threonine-protein kinase D2 (Homo sapiens) (UniProt Q9BZL6); assay: PKD2 (h) Upstate kinase activity assay; conditions: Compound concentration 10.0 uM
T1 sequence (whole entry): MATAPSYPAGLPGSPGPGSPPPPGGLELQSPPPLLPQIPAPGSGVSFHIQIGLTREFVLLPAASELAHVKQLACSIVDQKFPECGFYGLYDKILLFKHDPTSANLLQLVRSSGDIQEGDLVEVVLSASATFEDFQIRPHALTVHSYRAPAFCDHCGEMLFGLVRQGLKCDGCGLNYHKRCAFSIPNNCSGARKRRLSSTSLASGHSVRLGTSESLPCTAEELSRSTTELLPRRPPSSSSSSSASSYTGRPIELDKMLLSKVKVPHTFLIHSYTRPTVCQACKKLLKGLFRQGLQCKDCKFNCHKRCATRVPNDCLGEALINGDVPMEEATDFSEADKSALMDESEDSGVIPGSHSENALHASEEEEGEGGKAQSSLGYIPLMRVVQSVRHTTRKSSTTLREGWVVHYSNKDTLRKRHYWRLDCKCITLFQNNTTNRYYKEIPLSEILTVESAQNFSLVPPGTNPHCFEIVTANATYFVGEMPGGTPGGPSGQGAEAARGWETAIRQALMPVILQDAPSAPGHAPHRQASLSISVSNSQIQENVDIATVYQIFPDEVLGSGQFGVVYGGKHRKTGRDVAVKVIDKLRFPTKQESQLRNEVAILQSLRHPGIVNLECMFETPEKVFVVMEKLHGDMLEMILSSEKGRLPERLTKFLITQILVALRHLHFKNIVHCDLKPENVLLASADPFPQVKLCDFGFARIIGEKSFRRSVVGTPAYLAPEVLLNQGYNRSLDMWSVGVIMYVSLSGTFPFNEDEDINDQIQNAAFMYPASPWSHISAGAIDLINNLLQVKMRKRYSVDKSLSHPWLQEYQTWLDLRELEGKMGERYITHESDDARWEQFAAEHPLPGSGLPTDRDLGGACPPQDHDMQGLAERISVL

[11] = species on record: Rattus norvegicus; assay: Rsk1 (r) Upstate kinase activity assay; conditions: Compound concentration 10.0 uM
[12] = biological target: Ribosomal protein S6 kinase alpha-3 (Homo sapiens) (UniProt P51812); assay: Rsk2 (h) Upstate kinase activity assay; conditions: Compound concentration 10.0 uM
[13] = tested on: DLD-1; assay: Colon DLD-1 cell line MDS Pharma Services Proliferation Assay; type: functional, cell-based, Homo sapiens
[14] = tested on: HT-29; assay: Colon HT-29 cell line MDS Pharma Services Proliferation Assay; type: functional, cell-based, Homo sapiens
[15] = Leukemia […] cell line MDS Pharma Services Proliferation Assay; type: functional, cell-based, Homo sapiens
[16] = tested on: PC-6; assay: Lung PC-6 cell line MDS Pharma Services Proliferation Assay; type: functional, cell-based, Homo sapiens
[17] = Lymphoma1-1331-IJ- JAl cell line MDS Pharma Services Proliferation Assay; type: functional, cell-based, Homo sapiens
[18] = biological target: 5-hydroxytryptamine receptor 1A (Homo sapiens) (UniProt P08908); conditions: Compound concentration 10.0 uM
[19] = biological target: D(3) dopamine receptor (Homo sapiens) (UniProt P35462); conditions: Compound concentration 10.0 uM
[20] = biological target: GABA-A receptor; anion channel (Rattus norvegicus) (UniProt O09028+P15431+P18506+P18508+P19969+P20236+P23574+P23576+P28471+P28473+P30191+P62813+P63079+P63138+Q91ZM7+Q9ES14); conditions: Compound concentration 10.0 uM
[21] = biological target: Rho-associated protein kinase 2 (Homo sapiens, UniProt O75116); conditions: Compound concentration 10.0 uM
[22] = biological target: Epidermal growth factor receptor (Homo sapiens) (UniProt P00533); conditions: Compound concentration 100.0 nM
[23] = tested on: Epidermal growth factor receptor (Homo sapiens), P00533 [UNDEFINED MUTATION]; conditions: Compound concentration 100.0 nM
[24] = tested on: Epidermal growth factor receptor (Homo sapiens), P00533 [L858R,T790M]; conditions: Compound concentration 100.0 nM
[25] = tested on: Epidermal growth factor receptor (Homo sapiens), P00533 [T790M]; conditions: Compound concentration 100.0 nM
[26] = biological target: Alpha-2C adrenergic receptor (Homo sapiens) (UniProt P18825); conditions: Compound concentration 10.0 uM
[27] = Homo sapiens, Lymphoma1-1331-IJ- JAl

Chain of Casein kinase II subunit alpha (Homo sapiens) (P68400 whole entry, looked up): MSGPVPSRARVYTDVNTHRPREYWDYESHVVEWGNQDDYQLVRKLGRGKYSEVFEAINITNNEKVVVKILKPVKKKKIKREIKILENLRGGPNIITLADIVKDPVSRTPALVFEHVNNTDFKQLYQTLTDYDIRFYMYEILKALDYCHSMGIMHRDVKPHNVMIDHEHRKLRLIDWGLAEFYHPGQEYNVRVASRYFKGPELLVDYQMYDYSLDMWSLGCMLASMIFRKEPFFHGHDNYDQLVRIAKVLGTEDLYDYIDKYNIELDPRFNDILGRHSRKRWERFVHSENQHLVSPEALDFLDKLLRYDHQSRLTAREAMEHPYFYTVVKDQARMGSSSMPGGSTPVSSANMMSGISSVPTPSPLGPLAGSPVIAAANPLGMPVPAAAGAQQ
Chain of Ephrin type-A receptor 2 (Homo sapiens) (P29317 whole entry): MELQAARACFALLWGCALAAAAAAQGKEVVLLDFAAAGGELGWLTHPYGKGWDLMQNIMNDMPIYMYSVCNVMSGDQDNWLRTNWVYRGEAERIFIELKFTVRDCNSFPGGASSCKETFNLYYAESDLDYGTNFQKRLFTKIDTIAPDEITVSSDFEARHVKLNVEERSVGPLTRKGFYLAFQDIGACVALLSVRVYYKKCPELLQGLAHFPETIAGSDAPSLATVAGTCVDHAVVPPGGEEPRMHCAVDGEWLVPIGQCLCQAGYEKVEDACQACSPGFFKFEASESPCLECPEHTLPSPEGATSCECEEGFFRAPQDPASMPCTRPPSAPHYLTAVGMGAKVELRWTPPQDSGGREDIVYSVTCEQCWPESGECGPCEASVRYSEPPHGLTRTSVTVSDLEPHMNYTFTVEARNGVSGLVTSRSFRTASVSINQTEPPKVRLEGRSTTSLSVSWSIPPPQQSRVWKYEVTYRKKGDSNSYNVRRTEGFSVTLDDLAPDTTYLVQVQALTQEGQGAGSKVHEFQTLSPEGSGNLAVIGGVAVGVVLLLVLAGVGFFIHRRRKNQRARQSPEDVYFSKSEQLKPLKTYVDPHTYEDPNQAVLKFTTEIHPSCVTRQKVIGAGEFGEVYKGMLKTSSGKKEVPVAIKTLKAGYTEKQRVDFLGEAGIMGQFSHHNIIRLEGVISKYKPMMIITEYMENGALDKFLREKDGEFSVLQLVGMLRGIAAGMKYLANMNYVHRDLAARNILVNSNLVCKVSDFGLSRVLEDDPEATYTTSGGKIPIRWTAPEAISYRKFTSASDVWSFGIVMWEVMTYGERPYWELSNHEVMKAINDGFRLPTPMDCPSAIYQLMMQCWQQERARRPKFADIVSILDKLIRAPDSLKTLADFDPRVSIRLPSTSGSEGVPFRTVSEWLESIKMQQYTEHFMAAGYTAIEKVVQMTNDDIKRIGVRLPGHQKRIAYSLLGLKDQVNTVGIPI
Chain of D(3) dopamine receptor (Homo sapiens) (P35462 whole entry): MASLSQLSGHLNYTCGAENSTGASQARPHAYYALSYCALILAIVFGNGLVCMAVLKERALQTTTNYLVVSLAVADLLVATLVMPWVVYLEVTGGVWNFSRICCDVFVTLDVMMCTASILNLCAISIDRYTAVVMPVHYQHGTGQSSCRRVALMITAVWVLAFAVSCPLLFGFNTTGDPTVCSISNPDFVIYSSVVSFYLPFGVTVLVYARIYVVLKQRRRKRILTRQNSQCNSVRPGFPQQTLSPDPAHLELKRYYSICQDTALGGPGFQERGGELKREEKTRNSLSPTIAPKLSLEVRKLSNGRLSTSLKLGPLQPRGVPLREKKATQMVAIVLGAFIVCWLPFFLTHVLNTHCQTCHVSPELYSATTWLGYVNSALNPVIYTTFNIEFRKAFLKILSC
Chain of Ribosomal protein S6 kinase alpha-3 (Homo sapiens) (P51812 whole entry): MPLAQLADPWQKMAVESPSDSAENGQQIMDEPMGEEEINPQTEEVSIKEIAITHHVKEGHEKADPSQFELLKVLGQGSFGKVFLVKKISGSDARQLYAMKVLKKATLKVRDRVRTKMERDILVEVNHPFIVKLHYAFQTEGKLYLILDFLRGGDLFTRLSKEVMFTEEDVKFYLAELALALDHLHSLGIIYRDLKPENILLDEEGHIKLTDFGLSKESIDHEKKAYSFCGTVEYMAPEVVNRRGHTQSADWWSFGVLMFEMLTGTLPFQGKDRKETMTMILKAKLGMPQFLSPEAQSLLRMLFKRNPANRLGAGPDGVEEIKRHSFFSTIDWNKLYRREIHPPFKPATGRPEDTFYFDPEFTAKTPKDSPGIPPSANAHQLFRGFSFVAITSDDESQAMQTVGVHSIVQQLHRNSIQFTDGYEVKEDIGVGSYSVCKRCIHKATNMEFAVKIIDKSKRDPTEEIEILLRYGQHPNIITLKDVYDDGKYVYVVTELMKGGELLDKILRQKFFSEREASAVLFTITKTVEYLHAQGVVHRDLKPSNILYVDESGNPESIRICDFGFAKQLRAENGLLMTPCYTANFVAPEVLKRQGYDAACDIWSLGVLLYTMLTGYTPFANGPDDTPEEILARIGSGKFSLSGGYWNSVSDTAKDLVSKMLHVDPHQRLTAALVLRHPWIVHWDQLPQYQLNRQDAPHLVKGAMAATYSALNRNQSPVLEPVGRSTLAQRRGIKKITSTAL
Chain of Alpha-2C adrenergic receptor (Homo sapiens) (P18825 whole entry): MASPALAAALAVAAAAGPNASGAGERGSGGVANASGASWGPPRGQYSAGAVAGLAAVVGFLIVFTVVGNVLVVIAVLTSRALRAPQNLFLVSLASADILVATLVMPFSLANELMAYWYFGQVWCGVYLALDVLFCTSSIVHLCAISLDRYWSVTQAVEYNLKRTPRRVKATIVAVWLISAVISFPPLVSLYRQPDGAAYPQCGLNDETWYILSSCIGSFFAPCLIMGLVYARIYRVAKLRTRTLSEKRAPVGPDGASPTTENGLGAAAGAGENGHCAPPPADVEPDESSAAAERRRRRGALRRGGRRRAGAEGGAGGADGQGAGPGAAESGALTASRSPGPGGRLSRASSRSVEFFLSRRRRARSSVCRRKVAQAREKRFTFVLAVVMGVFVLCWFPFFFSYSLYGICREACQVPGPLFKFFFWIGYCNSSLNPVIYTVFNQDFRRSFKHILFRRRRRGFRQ
Chain of Rho-associated protein kinase 2 (O75116 whole entry, looked up): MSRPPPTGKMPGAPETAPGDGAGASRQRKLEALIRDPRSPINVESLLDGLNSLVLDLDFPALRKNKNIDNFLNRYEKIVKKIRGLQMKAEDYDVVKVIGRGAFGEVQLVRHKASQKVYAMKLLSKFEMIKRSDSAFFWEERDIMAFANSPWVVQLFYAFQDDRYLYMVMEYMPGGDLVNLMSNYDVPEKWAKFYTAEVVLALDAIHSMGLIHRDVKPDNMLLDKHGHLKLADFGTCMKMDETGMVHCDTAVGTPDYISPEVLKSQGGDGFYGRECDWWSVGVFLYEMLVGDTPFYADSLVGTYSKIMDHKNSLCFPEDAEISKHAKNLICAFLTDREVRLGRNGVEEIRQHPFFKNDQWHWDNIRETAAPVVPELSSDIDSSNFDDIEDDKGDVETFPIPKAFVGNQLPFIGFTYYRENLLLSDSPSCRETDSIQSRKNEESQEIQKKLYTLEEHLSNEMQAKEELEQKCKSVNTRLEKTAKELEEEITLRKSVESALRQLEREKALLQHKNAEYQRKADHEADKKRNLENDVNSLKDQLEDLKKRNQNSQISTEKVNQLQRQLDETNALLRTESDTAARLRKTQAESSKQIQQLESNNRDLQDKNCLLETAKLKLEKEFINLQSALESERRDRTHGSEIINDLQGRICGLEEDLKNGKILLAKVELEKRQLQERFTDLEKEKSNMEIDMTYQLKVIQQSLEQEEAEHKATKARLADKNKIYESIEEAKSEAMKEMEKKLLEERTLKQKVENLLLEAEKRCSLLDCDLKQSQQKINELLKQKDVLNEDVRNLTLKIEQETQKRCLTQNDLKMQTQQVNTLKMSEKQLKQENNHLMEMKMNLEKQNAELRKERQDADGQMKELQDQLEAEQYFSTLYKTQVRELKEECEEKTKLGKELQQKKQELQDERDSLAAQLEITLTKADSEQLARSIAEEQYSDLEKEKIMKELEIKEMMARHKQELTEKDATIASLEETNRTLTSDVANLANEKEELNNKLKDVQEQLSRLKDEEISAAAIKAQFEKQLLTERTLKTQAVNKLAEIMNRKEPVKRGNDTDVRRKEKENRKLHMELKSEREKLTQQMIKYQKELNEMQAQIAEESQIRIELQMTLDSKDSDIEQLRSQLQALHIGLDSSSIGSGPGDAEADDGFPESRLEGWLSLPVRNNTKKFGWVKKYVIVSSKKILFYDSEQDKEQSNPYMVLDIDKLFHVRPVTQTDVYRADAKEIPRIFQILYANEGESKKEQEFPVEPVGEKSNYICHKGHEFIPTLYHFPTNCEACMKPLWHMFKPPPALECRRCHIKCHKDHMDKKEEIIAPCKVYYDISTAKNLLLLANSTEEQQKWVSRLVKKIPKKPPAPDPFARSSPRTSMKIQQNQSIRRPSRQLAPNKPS
Chain of Dual specificity mitogen-activated protein kinase kinase 1 (Homo sapiens) (Q02750 whole entry): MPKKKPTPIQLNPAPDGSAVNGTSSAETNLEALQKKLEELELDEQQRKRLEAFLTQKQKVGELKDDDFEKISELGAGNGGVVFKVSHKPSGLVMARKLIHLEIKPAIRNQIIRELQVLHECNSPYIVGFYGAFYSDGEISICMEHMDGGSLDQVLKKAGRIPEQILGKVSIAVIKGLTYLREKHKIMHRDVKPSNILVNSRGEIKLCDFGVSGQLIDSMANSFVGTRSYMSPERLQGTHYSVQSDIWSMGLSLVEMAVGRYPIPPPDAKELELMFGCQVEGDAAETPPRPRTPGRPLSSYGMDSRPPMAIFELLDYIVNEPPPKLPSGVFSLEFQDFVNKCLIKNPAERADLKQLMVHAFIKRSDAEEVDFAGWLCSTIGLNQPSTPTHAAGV

Cc1c[nH]c2nccc(Oc3c(F)cc(Nc4cc(Cl)nc(N)n4)cc3F)c12 [BAY-549]
inhibition [1]: 28%
inhibition [2]: 78%
inhibition [3]: 40%
inhibition [4]: 9%
inhibition [5]: 6%
inhibition [6]: 4%
inhibition [7]: 31%
inhibition [8]: 9%
inhibition [9]: 95%
inhibition [10]: 28%
inhibition [11]: 79%
inhibition [12]: 61%
Mean % growth (n = 2) for 0.01 µM probe concentration [13]: 101%
IC50 ([13]; Homo sapiens, DLD-1): 2.4 µM
TGI ([13]; Homo sapiens, DLD-1): > 100 µM
CC50 ([13]; Homo sapiens, DLD-1, read-out: LC50 (the source's name)): > 100 µM
Mean % growth (n = 2) for 10.0 µM probe concentration ([13]; ± SEM 1 % growth): 24%
Mean % growth (n = 2) for 100.0 µM probe concentration ([13]; ± SEM 1 % growth): 5%
Mean % growth (n = 2) for 0.1 µM probe concentration ([13]; ± SEM 2 % growth): 94%
Mean % growth (n = 2) for 1.0 µM probe concentration ([13]; ± SEM 4 % growth): 66%
IC50 ([14]; Homo sapiens, HT-29): 2.9 µM
TGI ([14]; Homo sapiens, HT-29): 19 µM
CC50 ([14]; Homo sapiens, HT-29, read-out: LC50 (the source's name)): > 100 µM
Mean % growth (n = 2) for 0.1 µM probe concentration ([14]; ± SEM 1 % growth): 95%
Mean % growth (n = 2) for 1.0 µM probe concentration ([14]; ± SEM 1 % growth): 75%
Mean % growth (n = 2) for 10.0 µM probe concentration ([14]; ± SEM 4 % growth): 10%
Mean % growth (n = 2) for 0.01 µM probe concentration ([14]; ± SEM 8 % growth): 100%
Mean % growth (n = 2) for 100.0 µM probe concentration ([14]; ± SEM 9 % growth): -38%
IC50 ([15]; Homo sapiens, Leukemia 1-IL-60): 21 µM
TGI ([15]; Homo sapiens, Leukemia 1-IL-60): > 100 µM
CC50 ([15]; Homo sapiens, Leukemia 1-IL-60, read-out: LC50 (the source's name)): > 100 µM
Mean % growth (n = 2) for 100.0 µM probe concentration ([15]; ± SEM 2 % growth): 35%
Mean % growth (n = 2) for 0.01 µM probe concentration ([15]; ± SEM 4 % growth): 98%
Mean % growth (n = 2) for 0.1 µM probe concentration ([15]; ± SEM 4 % growth): 88%
Mean % growth (n = 2) for 1.0 µM probe concentration ([15]; ± SEM 5 % growth): 89%
Mean % growth (n = 2) for 10.0 µM probe concentration ([15]; ± SEM 6 % growth): 53%
IC50 ([16]; Homo sapiens, PC-6): 4.2 µM
TGI ([16]; Homo sapiens, PC-6): 18 µM
CC50 ([16]; Homo sapiens, PC-6, read-out: LC50 (the source's name)): 76 µM
Mean % growth (n = 2) for 0.1 µM probe concentration ([16]; ± SEM 5 % growth): 84%
Mean % growth (n = 2) for 100.0 µM probe concentration ([16]; ± SEM 6 % growth): -65%
Mean % growth (n = 2) for 10.0 µM probe concentration ([16]; ± SEM 7 % growth): 32%
Mean % growth (n = 2) for 0.01 µM probe concentration ([16]; ± SEM 9 % growth): 105%
Mean % growth (n = 2) for 1.0 µM probe concentration ([16]; ± SEM 9 % growth): 70%
IC50 [17, 27]: > 100 µM
TGI [17, 27]: > 100 µM
CC50 ([17]; Homo sapiens, Lymphoma1-1331-IJ- JAl, read-out: LC50 (the source's name)): > 100 µM
Mean % growth (n = 2) for 10.0 µM probe concentration ([17]; ± SEM 1 % growth): 98%
Mean % growth (n = 2) for 0.1 µM probe concentration ([17]; ± SEM 5 % growth): 103%
Mean % growth (n = 2) for 1.0 µM probe concentration ([17]; ± SEM 6 % growth): 97%
Mean % growth (n = 2) for 100.0 µM probe concentration ([17]; ± SEM 7 % growth): 80%
Mean % growth (n = 2) for 0.01 µM probe concentration ([17]; ± SEM 8 % growth): 96%
inhibition [18]: 11.7%
inhibition [19]: -5.8%
inhibition [20]: -8.68%
inhibition [21]: 100%

Cn1cc(Cl)c2c(Oc3c(F)cc(Nc4cc(Cl)nc(N)n4)cc3F)ccnc21 [BAY-4900]
residual activity [22]: 97%
residual activity [23]: 73%
residual activity [24]: 84%
residual activity [25]: 88%
inhibition [26]: -6.8%

— ChEMBL document CHEMBL4507274 (2021)
